Test results reported in patent US20020031795A1, “Nitrocoumarins for detecting all micro-organisms” (priority 1998, published 2002).

Assays:
Test in all cases: Fluorescence after 24 hours, serial dilutions in Trypticase Soy broth
Format in all cases: cell-based
[1] = system: Acinetobacter haemolyticus (ATCC 17906)
Method: (§1) This experiment was performed to test 7-nitrocoumarin-3-carboxylic acid on sixteen (16) different types of microorganism, including one yeast species.
(§2) A mass of 10 mg of the indicator was dissolved in 4 ml of hot, distilled water and this solution was then added to 96 ml of Trypticase Soy broth. The resultant mixture was sterile-filtered.
(§3) All the microorganisms were grown for 24 hours in Trypticase Soy broth at 35° C. Each culture was then diluted 1,000-fold in Trypticase Soy broth and then serial 10-fold dilutions were made in more Trypticase Soy broth until the test aliquot contained no more microbial cells.
(§4) The resultant dilutions ranged from 10^−3 to 10^−13.
(§5) Fifty microliters of each dilution plus 50 μl of Trypticase Soy broth were added to wells of a microtiter plate with or without 7-nitrocoumarin-3-carboxylic acid.
(§6) The plates were read (T zero) and then incubated at 35° C. before being read again after 24 hours. Two different readings were made at each time point:
(§7) of the fluorescence (excitation at 365 nm and emission at 440 nm), using a Biolite F1 2001 fluorometer (Labtech International Limited), for wells containing 7-nitrocoumarin-3-carboxylic acid.

[2] = system: Moraxella nonliquefaciens (ATCC 19975)
Method: as §1, §2, §3, §4, §5, §6, §7

[3] = system: Listeria ivanovii (wild strain)
Method: as §1, §2, §3, §4, §5, §6, §7

[4] = system: Brevundimonas vesicularis (ATCC 11426)
Method: as §1, §2, §3, §4, §5, §6, §7

For `O=C(O)c1cc2ccc([N+](=O)[O-])cc2oc1=O` [7-nitrocoumarin-3-carboxylic acid], the Fluorescence reading ([1]; dilution 10^−3) was 19231, the Fluorescence reading ([1]; dilution 10^−4) was 17403 and the Fluorescence reading ([1]; dilution 10^−5) was 12614. It also gave a Fluorescence reading ([1]; dilution 10^−6) of 9727, a Fluorescence reading ([1]; dilution 10^−7) of 4236 and a Fluorescence reading ([1]; dilution 10^−8) of 1981. The Fluorescence reading ([1]; dilution 10^−9) was 1938, the Fluorescence reading ([1]; dilution 10^−10) was 2005 and the Fluorescence reading ([1]; dilution 10^−11) was 1947. For the same compound, the Fluorescence reading ([1]; dilution 10^−12) was 1904, the Fluorescence reading ([1]; dilution 10^−13) was 1938 and the Fluorescence reading ([2]; dilution 10^−3) was 28160. It also gave a Fluorescence reading ([2]; dilution 10^−4) of 27889, a Fluorescence reading ([2]; dilution 10^−5) of 28439 and a Fluorescence reading ([2]; dilution 10^−6) of 27648. It also gave a Fluorescence reading ([2]; dilution 10^−7) of 27385, a Fluorescence reading ([2]; dilution 10^−8) of 27196 and a Fluorescence reading ([2]; dilution 10^−9) of 1974. The Fluorescence reading ([2]; dilution 10^−10) was 2057, the Fluorescence reading ([2]; dilution 10^−11) was 2002 and the Fluorescence reading ([2]; dilution 10^−12) was 1956. The Fluorescence reading ([2]; dilution 10^−13) was 1907, the Fluorescence reading ([3]; dilution 10^−3) was 16246 and the Fluorescence reading ([3]; dilution 10^−4) was 44910. For the same compound, the Fluorescence reading ([3]; dilution 10^−5) was 13185, the Fluorescence reading ([3]; dilution 10^−6) was 44865 and the Fluorescence reading ([3]; dilution 10^−7) was 9251. It also gave a Fluorescence reading ([3]; dilution 10^−8) of 8137, a Fluorescence reading ([3]; dilution 10^−9) of 44425 and a Fluorescence reading ([3]; dilution 10^−10) of 1663. It also gave a Fluorescence reading ([3]; dilution 10^−11) of 1651, a Fluorescence reading ([3]; dilution 10^−12) of 1691 and a Fluorescence reading ([3]; dilution 10^−13) of 1682. For the same compound, the Fluorescence reading ([4]; dilution 10^−3) was 2543, the Fluorescence reading ([4]; dilution 10^−4) was 1962 and the Fluorescence reading ([4]; dilution 10^−5) was 1861. It also gave a Fluorescence reading ([4]; dilution 10^−6) of 1941, a Fluorescence reading ([4]; dilution 10^−7) of 1928 and a Fluorescence reading ([4]; dilution 10^−8) of 1889. The Fluorescence reading ([4]; dilution 10^−9) was 1929, the Fluorescence reading ([4]; dilution 10^−10) was 1910 and the Fluorescence reading ([4]; dilution 10^−11) was 1938. The Fluorescence reading ([4]; dilution 10^−12) was 1919 and the Fluorescence reading ([4]; dilution 10^−13) was 1877.
